Data as given in patent publication US11141389B2, “Agents that inhibit NGLY1 and methods of use thereof” (The Board of Trustees of the Leland Stanford Junior …, priority 2017, dated 2021).
Like-named read-outs stand apart in the source and are kept apart here. Each block holds one compound with its values, some of them ahead of it. Residues, ends and D or L forms follow the SMILES beside them. *: point of attachment. Cbz = O=C(OCc1ccccc1)*; CH2F = FC*

Assays:
NGly1 [1] = molecular target: T1, NGly1 (Homo sapiens, UniProt Q96IV0); test: Gel shift of RNAse B exposed to recombinant Ngly1; type: biochemical; settings: gel electrophoresis, in the presence of the compound
T1 sequence (Q96IV0 1-654): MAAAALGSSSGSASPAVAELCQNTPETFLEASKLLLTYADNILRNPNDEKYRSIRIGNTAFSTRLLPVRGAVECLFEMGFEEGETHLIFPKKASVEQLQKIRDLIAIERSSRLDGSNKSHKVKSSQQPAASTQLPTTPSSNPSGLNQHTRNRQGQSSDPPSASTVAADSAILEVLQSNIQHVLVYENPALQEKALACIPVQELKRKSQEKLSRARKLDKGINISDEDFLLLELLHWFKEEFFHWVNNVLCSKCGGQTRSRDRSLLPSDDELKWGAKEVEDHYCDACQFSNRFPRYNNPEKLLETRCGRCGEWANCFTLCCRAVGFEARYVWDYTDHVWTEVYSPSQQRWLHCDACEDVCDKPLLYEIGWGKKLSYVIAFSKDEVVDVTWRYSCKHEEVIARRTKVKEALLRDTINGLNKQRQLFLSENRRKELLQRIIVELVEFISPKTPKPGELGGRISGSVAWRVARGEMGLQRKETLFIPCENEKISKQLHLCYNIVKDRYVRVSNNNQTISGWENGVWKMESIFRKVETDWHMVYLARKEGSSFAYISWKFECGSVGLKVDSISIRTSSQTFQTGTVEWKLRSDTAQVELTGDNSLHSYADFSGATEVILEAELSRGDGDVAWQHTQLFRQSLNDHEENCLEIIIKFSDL
Excerpt: To detect direct inhibition of NGly1 by WRR139, the mass shift of RNAse B exposed to recombinant Ngly1 was observed by gel electrophoresis. In the presence of Ngly1, RNAse B was fully converted from its glycosylated band at pXXX to a deglycosylated protein at pXXX (FIG. 4D).

Nrf1 [2] = test: Immunoblot of Nrf1 processing in Nrf1 overexpressing HEK cells; type: cell-based, Human; settings: compound before carfilzomib
Excerpt: In a second attempt, we used Nrf1 overexpressing HEK cells and applied the small molecule Z-VAD-fmk (FIG. 1B) to inhibit NGly1 before treating the cells with carfilzomib. […] The higher abundance of the p120 band indicates the existence of the N-glycosylated form of Nrf1 as the main species in cells treated with Z-VAD-fmk. […] Thus, the incorrect processing of Nrf1 that we observed in cells treated with Z-VAD-fmk results from inhibition of NGly1 and not from caspase inhibition.
Nrf-3× Flag overexpressing HEK cells (RDB-2867; a kind gift from Senthil Radhakrishnan, Virginia Commonwealth University) were obtained by cloning Human Nrf1 coding region along with a C-terminal 3× Flag sequence into pcDNA3.1+ (Invitrogen, Carlsbad, Calif.). Cells were grown in Dulbecco's modified Eagle's medium (DMEM) supplemented with 10% fetal bovine serum (Clontech Laboratories), penicillin, and streptomycin (Fisher Scientific) at 37° C. in 5% CO2.
Immunoblot Analysis. Cells were lysed in RIPA buffer (50 mM Tris [pH 7.4], 150 mM NaCl, 1% NP40, 1% Na. Deoxycholate, 0.1% SDS, and 1 mM EDTA) supplemented with protease and phosphatase inhibitor cocktail (Pierce). For detecting Nrf1 a rabbit monoclonal antibody raised against the N terminus (D5B10, Cell Signaling) was used. Other immunoblots were performed with antibodies specific for Flag tag (Sigma-Aldrich) and β-actin (Cell Signaling).

Nrf1 [3] = test: 3xPSMA4-ARE dual luciferase reporter assay in Nrf1 overexpressing HEK cells; type: cell-based, Human; settings: compound prior to carfilzomib
Procedure: The same experiment was performed in Nrf1 overexpressing HEK cells in which NGly1 was inhibited by Z-VAD-fmk prior to incubation with carfilzomib. The caspase inhibitor QVD-OPh served as control to out rule that observed effect resulted from caspase inhibition.
(§1) Luciferase Assays. The construct 3xPSMA4-ARE-Luc (RDB-2415; a kind gift from Senthil Radhakrishnan, Virginia Commonwealth University) was described previously. Briefly, an oligo (5′-[…] […] […] […] […] […] […]-3′) (SEQ ID NO: 10) containing three copies of a putative ARE (shown in uppercase) derived from the first intron of the human PSMA4 gene was annealed to its corresponding reverse-complement oligo and cloned into pGL3-promoter vector (Promega). The promoter reporter was generated by inserting this construct upstream of a minimal SV40 promoter, driving the expression of a firefly luciferase.
Cells were transiently transfected with the firefly (promoter reporters) and renilla luciferase (pRL-TK; Promega) constructs along with effector plasmid as required. Cells were treated with compoubds or vehicle control for 12 hours. Afterwards cells were lysed in the luciferase assays were performed using the dual luciferase reporter assay system (E1910; Promega) according to the instructions from the manufacturer. The firefly luciferase activity was normalized to renilla luciferase activity for all experiments.

Nrf1 [4] = test: Confocal imaging of Nrf1 localization in Nrf1 overexpressing HEK cells; type: cell-based, Human
Excerpt: We further used confocal microscopy to visualize the localization of Nrf1 in MEFs and Nrf1 overexpressing HEK cells before and after treatment with carfilzomib (FIGS. 2B and C). In absence of carfilzomib Wt and NGly1^−/− MEFs show Nrf1 (in white) in low abundance and mainly in the cytosol (FIG. 2B). After treating the cells with carfilzomib for several hours, wt MEFs show Nrf1 in the nucleus whereas NGly1^−/− MEFs only show a higher abundance of Nrf1 in the cytosol. […] Untreated cells show Nrf1 mainly in the cytosol around the ER. […] Taking all the results in account we conclude that functioning NGly1 is required to activate Nrf1.
Immunofluorescence followed by confocal imaging. MEFs and Nrf-3× Flag overexpressing HEK cells were grown to 80% confluency on cover slips. Cells were treated with NGLy1-, caspase-, and proteasome inhibitors as indicated and allowed to recover in fresh media for one hour before cells were fixed using 100% ice cold methanol. Cells were treated with a primary rabbit monoclonal antibody raised against the N-terminus of Nrf1 (D5B10, Cell Signaling) and a secondary polyclonal Alexa Fluor0647 AffiniPure Fab Fragment Goat Anti-Rabbit IgG (H+L) (Jackson Immuno Research). […] Images were analyzed using Imaris analysis software (version). […]

[5] = tested on: multiple myeloma cell lines; test: Potentiation of proteasome inhibition in multiple myeloma cell lines; type: cell-based
Excerpt: Considering the effect of NGly1 KO or knockdown for proteasome inhibitor potentiation, we hoped to find the same effect through the use of a small molecule inhibitor of NGly1. Attempts to use Z-VAD-fmk to potentiate proteasome inhibition in multiple myeloma cell lines were unsuccessful, possibly due to its activity as a potent pan-caspase inhibitor.

NGly1 [6] = molecular target: T1, NGly1; test: Cresswell assay (ddVenus fluorescence on deglycosylation by NGly1) in stably transfected K562 cells; type: cell-based; design: endogenous in cells; host or cells: K562 cells stably transfected with the ddVenus reporter; settings: for IC50: K562 ddVenus cells, read-out: IC50 (reduction of fluorescence)
Excerpt: The assay used was a modified version of the fluorimetric assay first described by the Cresswell lab in 2011. Prepared by the Steinmetz lab, a stably transfected K562 cell line was used. Mutated to misfold and contain a site for N-glycosylation, the expressed ddVenus would only properly fold, and thus fluoresce, upon deglycosylation by NGly1 and concurrent conversion of the glycosylated asparagine residue to aspartic acid (FIG. 4A). Thus inhibition of NGly1 would not activate fluorescence in this assay. With this method a library of about 600 cysteine-protease inhibitor-like compounds were screened. Six hits were found, all of which were peptide-derived structures with an electrophilic warhead consisting of either a vinyl sulfone or epoxyketone (FIG. 4B).
Screen of ˜600 compounds with the Cresswell Assay. Screens were performed clear, V-bottom 96-well plates. Plates were prepared with negative control 2 μL DMSO (A1) and positive control 1 μL DMSO+1 μL 10 mM Z-VAD-fmk (final conc. 100 uM Z-VAD-fmk; A12-H12). Wells A2-A11 contained 1 μL DMSO, the remaining wells contained 1 μL of 1 mM stocks of compounds from the library.
100 μL of suspended K562 ddVenus cells were added to the plate at 1×10^6 cells/mL. Wells A1-A12 contained cells in growth media. The remaining wells contained cells in growth media supplemented 100 uM carfilzomib.
The mean of fluorescence in FL1 was plotted for each well.
Z-factor for the assay ranged between 0.38-0.85.

[7] = patients; cited from earlier work
caspases 3/7 = test: Caspase 3/7 inhibition assay (Caspase-Glo, staurosporine-induced U266 cells); type: cell-based; settings: staurosporine 1 μM, 8 hours
Procedure: We were further interested to see whether this molecule would also hit caspases, similar to the known Ngly1 inhibitor Z-VAD-fmk. […] Inhibition of caspases 3/7 was not observed until a concentration of about 10 μM was reached. In addition, the relative activity was not lowered below the range observed by induced apoptosis
Caspase 3/7 inhibition assay. 1 million U266 cells were suspended in 10 mL RPMI 15% BSA+PS, and plated into a flat-bottom, white-walled 96-well plate (100 μL per well). The plate was incubated at 37° C. overnight. The following day, cells were treated with staurosporine (apoptosis inducer, final concentration 1 μM), WRR139 or Z-VAD-fmk (at final concentrations shown) or DMSO to a final concentration of 2% DMSO (v/v) respectively. The plate was incubated for 8 hours at 37° C. Caspase-Glo kit reagent (company details) was prepared as per instruction from the manufacturer and after equilibration to 23° C. […] of the reagent was added to each well. […] Caspase inhibition was calculated by subtracting background (signal from media containing no cells) and comparison to signal from cells with induced apoptosis (staurosporine only).

K562 cells = test: Carfilzomib sensitivity of CRISPRi-knockdown K562 cell lines; type: cell-based
Procedure: Carfilzomib sensitivity of CRISPRi-knockdown k562 cell lines. Carfilzomib dissolved in DMSO at a concentration of 10 mM was used freshly or stored at −80° C. for no longer than a month without repeated freeze-thaw cycles. K562 cells were seeded at a density of 0.2 million cells/ml in 100 μl of RPMI medium in each well of a 96-well plate for 18 hours before treatment. The next day, serial-diluted Carfilzomib or DMSO was added to the cells with a final concentration of DMSO of 0.1% (v/v) in each well. After 48 hours of incubation at 37° C., the plate was retrieved and stained with a calcein-based LIVE/DEAD® Viability/Cytotoxicity Kit (Thermo Fisher Scientific), according to the manufacturer's instruction. The cells were then counted on an Accuri C6 flow cytometer (BD Biosciences, CA, USA). A total of 10,000 events was collected for each well. The viability was calculated as the percent of calcein-positive cells in each Carfilzomib-treated sample, normalized to that of the DMSO-treated vehicle control.

MEF cells = test: Viability of MEF NGly1-/- versus MEF WT with carfilzomib (WST-1); type: cell-based, Mouse; settings: 24 h incubation, doses 5-100 nM
Nrf1 [8] = test: 3xPSMA4-ARE dual luciferase reporter assay in MEFs; type: cell-based, Mouse; settings: 12 hour incubation
Excerpt: According to the theory the active form (p110) of Nrf1 that translocates to the nucleus and activates proteasome genes, is produced upon removal of the N-glycans. Using a construct in which three copies of the antioxidant respond element (ARE) of the human PSMA4 gene were inserted upstream of a SV40 promoter that drives the expression of firefly luciferase in a dual luciferase reporter assay, where plasmids expressing renilla luciferase were used as internal transfection control, we compared the reporter activity in NGly1^−/− MEFs and Wt MEFs after treatment with carfilzomib.
as §1
Cells were transiently transfected with the firefly (promoter reporters) and renilla luciferase (pRL-TK; Promega) constructs along with effector plasmid as required. […]

Proteasome = settings: blood and PBMCs, cited from earlier work

Procedure for H929 cells: Cell survival experiments using the Cell Titer-Glo 2.0 assay were performed in opaque white flat-bottomed 96-well plates. The cells (1.0-2.0×10^4 in 100 μL fresh media) were treated under the desired conditions and incubated for 24 or 48 h before addition of 100 μL assay reagent. Viability was calculated as percent signal compared to vehicle treated cells. Regression analysis and IC50 calculations were performed with GraphPad Prism 7.0.
U266 and H929: U266 or H929 cells were seeded at a density of 0.1 million cells/mL in RPMI medium (100 μL per well). The following day, carfilzomib, DMSO, or WRR139 were added in DMSO to final concentrations as shown for a maximum final concentration of 1% DMSO (v/v). After 48 h of incubation at 37° C. with 5% CO2, the plate was retrieved and treated with the Cell Titer-Glo 2.0 assay. After 10 minutes incubation the plate was analyzed by measuring the luminescence using a Spectra max®i3x (VWR, Australia) plate reader.

- IC50 (NGly1 [6]): 4.4 µM
SMILES: COC(=O)C[C@H](NC(=O)[C@H](C)NC(=O)[C@@H](NC(=O)OCc1ccccc1)C(C)C)C(=O)CF [Z-VAD-fmk, carbobenzoxy-valyl-alanyl-aspartyl-[O-methyl]-fluoromethylketone] (Cbz-Val-Ala-Asp(OMe)-CH2F)
- deglycosylation of RNAse B by recombinant Ngly1 (NGly1 [1]): only the original band remains, with no conversion to the deglycosylated form
- Nrf1 processing (p120/p110 bands) (Nrf1 [2]): abnormal processing of Nrf1
- reporter activity (Nrf1 [3]): did not show an increased reporter activity
- localization of Nrf1 (Nrf1 [4]; compound prior to incubation with carfilzomib): high abundance of Nrf1 in the cytosol
- potentiation of proteasome inhibition [5]: unsuccessful

SMILES: CC(C)C[C@H](NC(=O)[C@H](Cc1ccccc1)NC(=O)c1cnccn1)B(O)O [bortezomib]
- incidence of neuropathy [7]: 30-60%

SMILES: Cc1ccc(S(=O)(=O)/C=C/C(=O)N[C@@H](CCc2ccccc2)C(=O)NCCC(C)C)cc1 [WRR139]
- deglycosylation of RNAse B by recombinant Ngly1 (NGly1 [1]): only the original band remains, with no conversion to the deglycosylated form
- concentration at which inhibition of caspases 3/7 is first observed (caspases 3/7): about 10 μM
- increase in killing / reduction of LD50 of carfilzomib (U266 cells; U266, WRR139 plus carfilzomib vs carfilzomib alone): 2.6 fold
- cell survival, co-inhibition with carfilzomib compared to carfilzomib alone (U266 cells; U266, after 24 hours): significantly decreased cell survival
- increase in killing / reduction of LD50 of carfilzomib (H929 cells; H929, WRR139 plus carfilzomib vs carfilzomib alone): 2 fold
- cell survival, co-inhibition with carfilzomib compared to carfilzomib alone (H929 cells; H929, after 24 hours): significantly decreased cell survival
- NGly1 inhibition in validation of the hits (NGly1 [6]; FIG. 4C): inhibit NGly1 in a dose-dependent manner
- IC50 (NGly1 [6]): 5.5 µM

SMILES: CC(C)C[C@H](NC(=O)[C@H](CCc1ccccc1)NC(=O)CN1CCOCC1)C(=O)N[C@@H](Cc1ccccc1)C(=O)N[C@@H](CC(C)C)C(=O)[C@@]1(C)CO1 [carfilzomib]
- LD50 (K562 cells; K562, dCAS9 knockdowns of Nrf1 or NGly1 (sgNrf1-A, sgNrf1-B, sgNGly1)): 20 nM
- LD50 (K562 cells; K562, no sgRNA or control sgRNA): 40 nM
- sensitivity of NGly1-/- cells relative to MEF WT (MEF cells): over 2 fold
- localization of Nrf1 (Nrf1 [4]; carfilzomib alone): the majority of Nrf1 was observed in the nucleus
- reporter (PSM) activity (Nrf1 [8]; NGly1-/- MEFs): no response
- reporter (PSM) activity (Nrf1 [8]; Wt MEFs): increase in PSM activity
- inhibition of proteasome activity (Proteasome; 15 mg/m^2, after the first dose): > 75%
- inhibition of proteasome activity (Proteasome; after five doses): > 90%
